A word on the IC50: it is the concentration needed to halve the response being measured.

This is an account of results in patent publication US8093266B2, “Rho kinase inhibitors” (Boehringer Ingelheim International GmbH, priority 2007, dated 2012).

T1 sequence (O75116 1-543): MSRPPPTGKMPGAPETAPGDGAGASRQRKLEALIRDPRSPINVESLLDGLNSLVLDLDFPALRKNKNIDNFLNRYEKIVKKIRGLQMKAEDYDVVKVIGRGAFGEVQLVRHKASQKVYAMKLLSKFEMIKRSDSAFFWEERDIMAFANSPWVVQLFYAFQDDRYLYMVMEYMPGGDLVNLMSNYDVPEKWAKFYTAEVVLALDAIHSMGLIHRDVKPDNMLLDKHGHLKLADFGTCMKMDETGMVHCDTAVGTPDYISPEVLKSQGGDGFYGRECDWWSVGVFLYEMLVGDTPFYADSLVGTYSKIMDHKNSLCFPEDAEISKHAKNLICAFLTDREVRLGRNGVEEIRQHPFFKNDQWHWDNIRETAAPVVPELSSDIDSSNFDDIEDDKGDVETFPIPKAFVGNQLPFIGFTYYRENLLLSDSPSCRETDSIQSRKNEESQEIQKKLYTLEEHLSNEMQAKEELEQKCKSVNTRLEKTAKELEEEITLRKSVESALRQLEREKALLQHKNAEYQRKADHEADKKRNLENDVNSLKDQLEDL

System in the first assay: not given
Assay: not given
The conditions noted are these: long term treatment; cited from earlier work.
As for `O=S(=O)(c1cccc2cnccc12)N1CCCNCC1` [fasudil], the coronary constrictive remodeling entry is recorded as “promote a regression of coronary constrictive remodeling” and the coronary stenosis result is “progressively reduce coronary stenosis”.

A further assay concerns the target T1, ROCKII (1-543) kinase (Homo sapiens, UniProt O75116).
T1 construct: ROCKII (1-543) (62,408 Da) was diluted in assay buffer to a final concentration of 7.5 nM
Put plainly: Molecular assay: ROCKII (1-543) kinase activity, PKLight ATP detection (luciferin-luciferase, residual ATP). The conditions noted are these: 750 nM ATP, 500 nM peptide substrate, 7.5 nM kinase, 90 min at 28° C.; read-out: Rock2 IC50. It counts as biochemical. The procedure: The activity of ROCKII (1-543) kinase was measured utilizing Cambrex PKLight ATP Detection Reagent, a homogeneous assay technology using luciferin-luciferase to quantify residual ATP. The assay was performed in 384-well low-volume, white, non-binding surface microtiter plates (Corning). The assay buffer was 25 mM HEPES, pH 7.5, 10 mM MgCl2, 50 mM KCl, 0.2% BSA, 0.01% CHAPS, 100 μM Na3VO4 and 0.5 mM DTT. Test compounds, dissolved in neat DMSO at 500 μg/mL, were serially diluted for dose response for a final starting concentration of 3 μg/mL in 1% DMSO of assay buffer. ROCKII (1-543) (62,408 Da) was diluted in assay buffer to a final concentration of 7.5 nM in a total volume of 15 μL. Positive controls were reaction mixtures containing no test compound; negative controls (blanks) were reaction mixtures containing no kinase. After 15 minutes of pre-incubation of the test compounds with the kinase, a mixture of ATP and peptide substrate ([…]) in assay buffer was added to each well for a final concentration of 750 nM ATP and 500 nM peptide, respectively. After 90 minutes of incubation of the kinase reaction at 28° C. temperature, 10 μL of PKLight ATP Detection Reagent (warmed to room temperature previously) was added to each well. The assay plate was incubated at room temperature for additional 15 minutes and then read on an Analyst in luminescence mode. Dose-response experiments for each of the test compounds were conducted in quadruplet. IC50 values of test compounds represent 50% response of the positive control from the dose-response curve.
Representative compounds of the present invention were tested for activity in this assay and all had IC50 values <10 μM. Preferred compounds have an IC50<1 μM and more preferred compounds have an IC50<0.1 μM in this assay. As examples the following data were obtained for the compounds named below: […]
Take `COc1ccc(C(=O)NCc2cccc(C(=O)Nc3nc4c(s3)C[C@H](N(C)C)CC4)c2)cc1OC` [N-[3-((R)-6-Dimethylamino-4,5,6,7-tetrahydro-benzothiazol-2-ylcarbamoyl)-benzyl]-3,4-dimethoxy-benzamide]: the 50% inhibitory concentration (IC50) came to 0.001 µM.
With `COc1ccc(C(=O)NCc2cccc(C(=O)Nc3ccc4c(c3)CCNCC4)c2)cc1OC` [3,4-Dimethoxy-N-[3-(2,3,4,5-tetrahydro-1H-benzo[d]azepin-7-ylcarbamoyl)-benzyl]-benzamide], the IC50 was 0.015 µM.
Take `COc1ccc(C(=O)NCc2cccc(C(=O)Nc3ccc(OCCN4CCOCC4)cc3)c2)cc1OC` [3,4-Dimethoxy-N-{3-[4-(2-morpholin-4-yl-ethoxy)-phenylcarbamoyl]-benzyl}-benzamide]: the IC50 was determined as 0.058 µM.
In the case of `CCCN[C@H]1CCc2nc(N(CCOC)C(=O)c3cccc(CNC(=O)c4ccc(OC)c(Cl)c4)c3)sc2C1` [3-Chloro-4-methoxy-N-{3-[(2-methoxy-ethyl)-((S)-6-propylamino-4,5,6,7-tetrahydro-benzothiazol-2-yl)-carbamoyl]-benzyl}-benzamide], the IC50 came out at 0.072 µM.
With `CCCN[C@H]1CCc2nc(NC(=O)c3cccc(CNC(=O)c4ccc(OC)c(Cl)c4)c3)sc2C1` [3-Chloro-4-methoxy-N-[3-((S)-6-propylamino-4,5,6,7-tetrahydro-benzothiazol-2-ylcarbamoyl)-benzyl]-benzamide], the IC50 was determined as 0.002 µM.
For `COc1ccc(C(=O)NCc2cccc(C(=O)Nc3nc4c(s3)C[C@@H](N3CCS(=O)(=O)CC3)CC4)c2)cc1OC` [N-{3-[(S)-6-(1,1-Dioxo-thiomorpholin-4-yl)-4,5,6,7-tetrahydro-benzothiazol-2-ylcarbamoyl]-benzyl}-3,4-dimethoxy-benzamide], the IC50 came out at 0.013 µM.
As to `COc1ccc(C(=O)NCc2cccc(C(=O)Nc3cnc4c(c3)CN(C)CC4)c2)cc1OC` [3,4-Dimethoxy-N-[3-(6-methyl-5,6,7,8-tetrahydro-[1,6]naphthyridin-3-ylcarbamoyl)-benzyl]-benzamide], the IC50 is 0.061 µM.
For `COc1ccc(C(=O)NCc2cccc(C(=O)Nc3nc4c(s3)C[C@@H](N3CCOCC3)CC4)c2)cc1OC` [3,4-Dimethoxy-N-[3-((S)-6-morpholin-4-yl-4,5,6,7-tetrahydro-benzothiazol-2-ylcarbamoyl)-benzyl]-benzamide], the IC50 is 0.001 µM.
On to `CCN1CCc2ccc(NC(=O)c3cccc(CNC(=O)c4ccc(OC)c(OC)c4)c3)cc2C1` [N-[3-(2-Ethyl-1,2,3,4-tetrahydro-isoquinolin-7-ylcarbamoyl)-benzyl]-3,4-dimethoxy-benzamide], for which the IC50 is 0.027 µM.
As to `COc1ccc(C(=O)NCc2cccc(C(=O)Nc3ncc(CCN4CCN(C)CC4)s3)c2)cc1OC` [3,4-Dimethoxy-N-(3-{5-[2-(4-methyl-piperazin-1-yl)-ethyl]-thiazol-2-ylcarbamoyl}-benzyl)-benzamide], the IC50 came out at 0.02 µM.
Regarding `COc1ccc(C(=O)NCc2cccc(C(=O)Nc3ccc4c(c3)CNC4)c2)cc1OC` [N-[3-(2,3-Dihydro-1H-isoindol-5-ylcarbamoyl)-benzyl]-3,4-dimethoxy-benzamide], the 50% inhibitory concentration (IC50) turned out to be 0.006 µM.
For the compound `CN1CCc2nc(NC(=O)c3cccc(CNC(=O)Nc4ccc(C#N)cc4)c3)sc2C1` [3-[3-(4-Cyano-phenyl)-ureidomethyl]-N-(5-methyl-4,5,6,7-tetrahydro-thiazolo[5,4-c]pyridin-2-yl)-benzamide], the IC50 worked out at 0.01 µM.
In the case of `COc1ccc(C(=O)NCc2cccc(C(=O)Nc3nc4c(s3)CNCC4)c2)cc1Cl` [3-Chloro-4-methoxy-N-[3-(4,5,6,7-tetrahydro-thiazolo[5,4-c]pyridin-2-ylcarbamoyl)-benzyl]-benzamide], the IC50 came out at 0.004 µM.
On the same count and under the same terms, the figure for `COCCN1CCc2ccc(NC(=O)c3cccc(CNC(=O)c4ccc(OC)c(OC)c4)c3)cc2C1` [3,4-Dimethoxy-N-{3-[2-(2-methoxy-ethyl)-1,2,3,4-tetrahydro-isoquinolin-7-ylcarbamoyl]-benzyl}-benzamide] is 0.099 µM; for `COc1ccc(C(=O)NCc2cccc(NC(=O)c3nc4c(s3)CNCC4)c2)cc1OC` [4,5,6,7-Tetrahydro-thiazolo[5,4-c]pyridine-2-carboxylic acid {3-[(3,4-dimethoxy-benzoylamino)-methyl]-phenyl}-amide] it is 0.022 µM; for `COc1ccc(C(=O)NCc2cccc(C(=O)Nc3ccc4c(c3)CC(N)C4)c2)cc1OC` (centres unmarked) [N-[3-(2-Amino-indan-5-ylcarbamoyl)-benzyl]-3,4-dimethoxy-benzamide] it is 0.012 µM.
Regarding `COc1ccc(C(=O)NCc2cccc(C(=O)Nc3ccc(CCN4CCCC4)cc3)c2)cc1C` [4-Methoxy-3-methyl-N-{3-[4-(2-pyrrolidin-1-yl-ethyl)-phenylcarbamoyl]-benzyl}-benzamide], the IC50 came to 0.12 µM.

System in another assay: not given
Assay: not given
Particulars: rat stroke model; cited from earlier work.
For the compound `O=S(=O)(c1cccc2cnccc12)N1CCCNCC1` [fasudil], the “infarct size and neurologic deficit” value is “reduce both the infarct size and neurologic deficit”.
